Where “and” joins values, the source holds several entries; their conditions need not be identical. Identical values can stand only once. Calls of active or inactive are those of the source.
Key:
A-375 [1] = assay: proliferation inhibition in MITF-low A375 cells – cell-based, cherry-pick samples, set 2, counter-screen for MITF modulator project, dose response (AID 540335); type: functional; settings: Homo sapiens
A-375 [2] = assay: MITF: Counter assay: A375 proliferation Measured in Cell-Based System Using Plate Reader - 2084-03_Inhibitor_Dose_DryPowder_Activity. [Related pubchem assays (depositor defined):AID488944]; type: functional; settings: Homo sapiens
[3] = molecular target: T1, Aryl hydrocarbon receptor (Homo sapiens, UniProt P35869); settings: Potency;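 note: confirmatory quantitative high-throughput screen measuring activation of the AhR signaling pathway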
T1 sequence (P35869 whole entry): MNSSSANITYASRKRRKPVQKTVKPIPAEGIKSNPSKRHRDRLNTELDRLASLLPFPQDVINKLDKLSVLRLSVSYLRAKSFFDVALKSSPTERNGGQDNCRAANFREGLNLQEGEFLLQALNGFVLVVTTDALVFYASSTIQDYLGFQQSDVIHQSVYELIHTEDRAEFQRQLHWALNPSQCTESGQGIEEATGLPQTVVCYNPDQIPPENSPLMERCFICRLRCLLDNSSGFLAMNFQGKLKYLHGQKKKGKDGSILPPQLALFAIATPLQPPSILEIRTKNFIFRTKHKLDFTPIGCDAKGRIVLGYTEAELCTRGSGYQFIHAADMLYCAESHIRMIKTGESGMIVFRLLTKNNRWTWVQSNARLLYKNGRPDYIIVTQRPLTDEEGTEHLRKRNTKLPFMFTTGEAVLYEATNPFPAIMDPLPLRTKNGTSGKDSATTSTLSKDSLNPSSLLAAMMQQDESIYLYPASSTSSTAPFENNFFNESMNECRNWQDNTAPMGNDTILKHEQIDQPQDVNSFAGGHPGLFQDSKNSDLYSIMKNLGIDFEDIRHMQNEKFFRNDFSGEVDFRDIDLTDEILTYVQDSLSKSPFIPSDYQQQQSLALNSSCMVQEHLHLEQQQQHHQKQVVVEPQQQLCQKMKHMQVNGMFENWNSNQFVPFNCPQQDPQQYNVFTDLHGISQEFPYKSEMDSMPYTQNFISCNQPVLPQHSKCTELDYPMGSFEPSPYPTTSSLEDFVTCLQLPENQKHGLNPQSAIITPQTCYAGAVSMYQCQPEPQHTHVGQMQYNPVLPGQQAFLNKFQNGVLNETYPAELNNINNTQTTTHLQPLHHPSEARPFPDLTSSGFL

[4] = molecular target: DNA dC->dU-editing enzyme APOBEC-3A (Homo sapiens, UniProt P31941); assay: Dose Response confirmation of small molecule APOBEC3A DNA Deaminase Inhibitors via a fluorescence-based single-stranded DNA deaminase assay. [Related pubchem assays (depositor defined):AID493011, AID493024]; type: functional
[5] = molecular target: DNA dC->dU-editing enzyme APOBEC-3G (Homo sapiens, UniProt Q9HC16); type: functional;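 note: Dose-response counterscreen measuring inhibition of APOBEC3G DNA deaminase activity, run while confirming APOBEC3A inhibitors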
[6] = molecular target: T2, Carboxy-terminal domain RNA polymerase II polypeptide A small phosphatase 1 (Homo sapiens, UniProt Q9GZU7); assay: CTDSP1 inhibitors, concentration-response, biochemical, absorbance readout, ultra-high-throughput screen actives (AID 540297); type: functional
T2 sequence (Q9GZU7 whole entry): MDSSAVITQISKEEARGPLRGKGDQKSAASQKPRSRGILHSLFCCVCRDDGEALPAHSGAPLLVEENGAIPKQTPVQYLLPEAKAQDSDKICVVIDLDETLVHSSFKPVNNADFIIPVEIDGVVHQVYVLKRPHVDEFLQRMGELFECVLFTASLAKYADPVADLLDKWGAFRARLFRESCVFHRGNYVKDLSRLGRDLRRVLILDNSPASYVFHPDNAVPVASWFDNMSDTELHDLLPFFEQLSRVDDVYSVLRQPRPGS

[7] = molecular target: Ras and Rab interactor 1/Tyrosine-protein kinase ABL1 (Homo sapiens, UniProt P00519+Q13671); type: functional;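 note: biochemical TR-FRET dose-response test measuring inhibition of binding between Rin1 and Abl proteins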
[8] = molecular target: T3, Ubiquitin-conjugating enzyme E2 N (Homo sapiens, UniProt P61088); type: functional;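 note: Dose-response confirmation in a TR-FRET assay detecting UBC13-driven polyubiquitin chain formation, inhibition measured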
T3 sequence (P61088 whole entry): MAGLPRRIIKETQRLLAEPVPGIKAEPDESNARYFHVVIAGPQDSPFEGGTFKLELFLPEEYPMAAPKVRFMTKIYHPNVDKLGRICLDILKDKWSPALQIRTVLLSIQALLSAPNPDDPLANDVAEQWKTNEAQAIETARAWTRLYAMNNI

HEK293 = assay: EBV LMP1 TES2 canonical NF-kB signalling blockers – cell-based, HEK293, luciferase, cherry-pick, dose response (AID 588343); type: functional; settings: Homo sapiens
[9] = fluconazole-exposed Candida albicans growth modulators – fluorescence, retest, confirmation (AID 2467); type: functional, cell-based
[10] = NIH-3T3 fibroblast cytotoxicity, dose response, cytotoxicity control, cell-based, fluorescence, Alamar Blue, secondary assay (AID 2327); type: functional;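 note: NIH-3T3 mouse fibroblasts cultured with fluconazole at 8 µg/mL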
Protein Wnt-3a = Protein Wnt-3a (Mus musculus, UniProt P27467); assay: antagonism of Wnt3a pathway luciferase reporter – Wnt-LIGHT cells, luminescence, selectivity assay for Gli-SUFU antagonist project, dose response (AID 651570); type: functional; settings: read-out: IC50_Mean;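 note: Wnt-LIGHT reporter cells stimulated with conditioned medium from Wnt3a-producing cells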
INS1 = assay: INS-1E survival protection against cytokine death – cell-based, luminescence, retest, dose response (AID 449756); type: functional; settings: Rattus norvegicus;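 note: cell death triggered by IL-1 beta plus TNF-alpha plus IFN-gamma mixture; protective hits raise ATP signal compared with cytokine alone wells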
[11] = viability of uninfected HEp-2 cells – cell-based, HTS, cytotoxicity control for RSV inhibitor project, dose response (AID 2410); type: functional; settings: human respiratory syncytial virus
[12] = molecular target: T4, Apoptotic protease-activating factor 1 (Homo sapiens, UniProt O14727); type: functional
T4 sequence (O14727 whole entry): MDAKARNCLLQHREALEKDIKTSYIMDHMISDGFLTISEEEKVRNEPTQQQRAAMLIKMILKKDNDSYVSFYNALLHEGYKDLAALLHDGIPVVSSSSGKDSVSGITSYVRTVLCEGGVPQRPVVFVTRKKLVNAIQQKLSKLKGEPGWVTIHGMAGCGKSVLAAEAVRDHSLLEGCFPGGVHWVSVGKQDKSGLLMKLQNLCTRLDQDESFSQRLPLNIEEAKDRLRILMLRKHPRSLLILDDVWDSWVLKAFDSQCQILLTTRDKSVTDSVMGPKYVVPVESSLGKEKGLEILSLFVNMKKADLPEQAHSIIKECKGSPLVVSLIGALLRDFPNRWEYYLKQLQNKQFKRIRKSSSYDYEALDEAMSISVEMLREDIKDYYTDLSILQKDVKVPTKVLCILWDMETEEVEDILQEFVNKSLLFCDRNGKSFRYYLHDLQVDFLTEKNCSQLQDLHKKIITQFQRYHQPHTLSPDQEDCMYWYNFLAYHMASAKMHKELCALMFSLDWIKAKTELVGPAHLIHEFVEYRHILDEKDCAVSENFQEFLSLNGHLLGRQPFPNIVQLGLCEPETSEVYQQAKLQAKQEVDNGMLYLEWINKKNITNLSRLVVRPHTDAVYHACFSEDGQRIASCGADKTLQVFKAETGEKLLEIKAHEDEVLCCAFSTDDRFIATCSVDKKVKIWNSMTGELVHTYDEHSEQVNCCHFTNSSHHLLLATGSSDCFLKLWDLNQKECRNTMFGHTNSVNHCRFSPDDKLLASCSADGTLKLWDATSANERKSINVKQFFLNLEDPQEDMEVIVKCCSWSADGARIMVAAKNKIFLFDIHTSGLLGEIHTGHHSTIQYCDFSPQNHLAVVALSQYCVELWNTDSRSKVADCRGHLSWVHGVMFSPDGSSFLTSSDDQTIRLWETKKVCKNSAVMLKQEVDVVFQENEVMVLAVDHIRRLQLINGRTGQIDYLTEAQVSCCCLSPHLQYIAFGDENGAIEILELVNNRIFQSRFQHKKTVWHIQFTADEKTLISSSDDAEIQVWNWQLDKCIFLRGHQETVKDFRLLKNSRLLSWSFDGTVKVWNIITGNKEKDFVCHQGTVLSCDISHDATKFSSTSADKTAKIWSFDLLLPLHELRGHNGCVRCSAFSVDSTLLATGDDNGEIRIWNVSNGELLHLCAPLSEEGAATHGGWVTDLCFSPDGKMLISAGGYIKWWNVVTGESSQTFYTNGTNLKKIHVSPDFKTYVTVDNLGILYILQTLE

[13] = molecular target: T5, DNA repair and recombination protein RAD54-like (Homo sapiens, UniProt Q92698); assay: RAD54 Holliday junction migration blockers – biochemical, fluorescence, cherry-picked samples, dose series, confirmation (AID 651657); type: functional
T5 sequence (Q92698 whole entry): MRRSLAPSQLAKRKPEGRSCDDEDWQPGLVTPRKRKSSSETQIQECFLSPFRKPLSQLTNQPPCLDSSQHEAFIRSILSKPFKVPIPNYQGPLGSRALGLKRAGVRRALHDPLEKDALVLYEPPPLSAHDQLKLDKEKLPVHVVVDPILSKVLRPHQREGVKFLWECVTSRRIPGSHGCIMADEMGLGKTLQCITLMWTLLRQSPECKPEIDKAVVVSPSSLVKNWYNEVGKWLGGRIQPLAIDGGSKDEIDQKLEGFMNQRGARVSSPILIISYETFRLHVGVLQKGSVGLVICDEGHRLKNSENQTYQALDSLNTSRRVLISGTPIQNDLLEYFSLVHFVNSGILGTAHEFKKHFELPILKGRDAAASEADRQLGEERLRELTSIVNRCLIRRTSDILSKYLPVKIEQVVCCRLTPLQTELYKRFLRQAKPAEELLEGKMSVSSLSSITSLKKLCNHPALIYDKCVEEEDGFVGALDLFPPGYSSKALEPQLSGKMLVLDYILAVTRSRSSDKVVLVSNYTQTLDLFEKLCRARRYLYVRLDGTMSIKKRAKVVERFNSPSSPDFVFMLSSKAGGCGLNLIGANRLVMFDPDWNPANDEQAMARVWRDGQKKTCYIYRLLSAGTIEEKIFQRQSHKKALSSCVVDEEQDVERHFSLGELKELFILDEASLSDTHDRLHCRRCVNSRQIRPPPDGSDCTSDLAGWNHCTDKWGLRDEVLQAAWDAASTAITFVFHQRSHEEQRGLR

P388 = assay: cells; type: functional; settings: Mus musculus
P388/ADR = assay: cells; type: functional; settings: Mus musculus
SN12K1 = assay: cells; type: functional; settings: Homo sapiens
[14] = activation of miR-122 Renilla sensor silencing – cell-based, Huh7 psiCHECK-miR122, Renilla luciferase, cherry-picked, dose response (AID 651956); type: functional;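 note: huh7 hepatoma cells stably carrying a psiCHECK-2 miR-122 sensor plasmid; renilla luciferase signal reporting endogenous miR-122 activity after 48 h compound exposure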
Cytochrome P450 3A4 = Cytochrome P450 3A4 (Homo sapiens, UniProt P08684); settings: Potency;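 note: confirmatory qHTS run detecting inhibitors and substrates of CYP3A4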
Cytochrome P450 3A4, sequence (P08684 whole entry): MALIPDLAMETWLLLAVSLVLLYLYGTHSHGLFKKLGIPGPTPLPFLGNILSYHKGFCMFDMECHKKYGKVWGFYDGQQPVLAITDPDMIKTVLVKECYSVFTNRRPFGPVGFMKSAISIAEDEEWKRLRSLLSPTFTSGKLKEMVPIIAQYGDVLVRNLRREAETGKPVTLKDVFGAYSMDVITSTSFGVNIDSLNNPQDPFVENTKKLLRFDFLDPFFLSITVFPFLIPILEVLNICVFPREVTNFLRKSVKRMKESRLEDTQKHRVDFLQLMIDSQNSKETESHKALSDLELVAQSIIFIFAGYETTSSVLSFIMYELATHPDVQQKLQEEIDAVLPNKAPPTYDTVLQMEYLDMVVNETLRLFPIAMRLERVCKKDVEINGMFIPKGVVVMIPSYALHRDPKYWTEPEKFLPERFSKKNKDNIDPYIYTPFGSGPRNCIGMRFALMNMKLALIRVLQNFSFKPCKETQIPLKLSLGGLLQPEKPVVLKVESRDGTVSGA

Ras and Rab interactor 1/Tyrosine-protein kinase ABL1, sequence (P00519 whole entry): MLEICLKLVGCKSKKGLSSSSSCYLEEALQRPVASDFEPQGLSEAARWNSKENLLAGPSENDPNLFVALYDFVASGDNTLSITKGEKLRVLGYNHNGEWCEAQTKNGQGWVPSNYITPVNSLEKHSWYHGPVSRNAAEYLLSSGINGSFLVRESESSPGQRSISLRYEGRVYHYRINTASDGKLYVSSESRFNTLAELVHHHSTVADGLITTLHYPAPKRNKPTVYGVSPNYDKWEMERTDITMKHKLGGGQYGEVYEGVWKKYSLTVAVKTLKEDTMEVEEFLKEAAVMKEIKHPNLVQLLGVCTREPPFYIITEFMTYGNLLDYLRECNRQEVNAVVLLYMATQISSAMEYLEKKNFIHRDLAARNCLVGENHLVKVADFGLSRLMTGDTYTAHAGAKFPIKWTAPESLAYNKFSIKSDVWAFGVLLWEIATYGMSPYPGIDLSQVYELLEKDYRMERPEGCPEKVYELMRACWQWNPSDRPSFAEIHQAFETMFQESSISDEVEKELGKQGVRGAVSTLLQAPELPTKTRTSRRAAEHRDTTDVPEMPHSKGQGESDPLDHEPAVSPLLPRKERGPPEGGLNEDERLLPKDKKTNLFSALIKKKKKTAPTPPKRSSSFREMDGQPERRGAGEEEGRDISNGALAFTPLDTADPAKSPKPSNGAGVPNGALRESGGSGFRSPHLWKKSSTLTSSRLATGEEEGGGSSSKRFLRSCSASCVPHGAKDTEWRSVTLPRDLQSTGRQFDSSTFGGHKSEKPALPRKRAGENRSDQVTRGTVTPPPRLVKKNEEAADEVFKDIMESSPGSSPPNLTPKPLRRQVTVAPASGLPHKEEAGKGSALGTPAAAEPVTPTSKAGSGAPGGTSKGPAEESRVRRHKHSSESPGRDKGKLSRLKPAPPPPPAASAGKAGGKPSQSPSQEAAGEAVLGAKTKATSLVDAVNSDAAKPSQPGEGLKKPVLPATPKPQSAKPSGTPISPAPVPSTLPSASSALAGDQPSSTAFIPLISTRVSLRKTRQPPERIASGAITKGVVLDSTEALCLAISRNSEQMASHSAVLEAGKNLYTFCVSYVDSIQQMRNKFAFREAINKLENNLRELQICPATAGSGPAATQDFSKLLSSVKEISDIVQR
Ras and Rab interactor 1/Tyrosine-protein kinase ABL1, sequence (Q13671 whole entry): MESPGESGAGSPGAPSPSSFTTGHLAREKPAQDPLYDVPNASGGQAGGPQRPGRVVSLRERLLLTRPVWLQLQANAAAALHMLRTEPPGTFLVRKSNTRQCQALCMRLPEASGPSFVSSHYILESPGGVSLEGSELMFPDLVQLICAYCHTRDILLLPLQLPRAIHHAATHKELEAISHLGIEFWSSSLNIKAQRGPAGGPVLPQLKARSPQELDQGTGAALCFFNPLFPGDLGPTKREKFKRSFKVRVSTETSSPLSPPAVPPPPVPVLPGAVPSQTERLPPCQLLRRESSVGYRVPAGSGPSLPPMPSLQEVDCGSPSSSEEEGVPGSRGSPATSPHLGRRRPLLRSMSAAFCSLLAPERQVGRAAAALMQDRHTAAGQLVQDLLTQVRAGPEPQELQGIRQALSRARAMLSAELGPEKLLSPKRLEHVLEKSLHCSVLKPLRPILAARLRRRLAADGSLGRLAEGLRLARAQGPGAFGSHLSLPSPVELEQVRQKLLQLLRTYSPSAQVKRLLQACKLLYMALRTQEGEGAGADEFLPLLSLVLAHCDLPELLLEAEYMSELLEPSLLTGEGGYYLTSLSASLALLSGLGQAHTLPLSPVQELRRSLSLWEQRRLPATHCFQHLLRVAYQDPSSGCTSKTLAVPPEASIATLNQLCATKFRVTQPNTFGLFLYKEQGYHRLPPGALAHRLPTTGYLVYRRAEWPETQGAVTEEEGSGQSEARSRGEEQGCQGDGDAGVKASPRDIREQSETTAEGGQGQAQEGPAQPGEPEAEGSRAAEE
DNA dC->dU-editing enzyme APOBEC-3G, sequence (Q9HC16 whole entry, the tested form may be a part): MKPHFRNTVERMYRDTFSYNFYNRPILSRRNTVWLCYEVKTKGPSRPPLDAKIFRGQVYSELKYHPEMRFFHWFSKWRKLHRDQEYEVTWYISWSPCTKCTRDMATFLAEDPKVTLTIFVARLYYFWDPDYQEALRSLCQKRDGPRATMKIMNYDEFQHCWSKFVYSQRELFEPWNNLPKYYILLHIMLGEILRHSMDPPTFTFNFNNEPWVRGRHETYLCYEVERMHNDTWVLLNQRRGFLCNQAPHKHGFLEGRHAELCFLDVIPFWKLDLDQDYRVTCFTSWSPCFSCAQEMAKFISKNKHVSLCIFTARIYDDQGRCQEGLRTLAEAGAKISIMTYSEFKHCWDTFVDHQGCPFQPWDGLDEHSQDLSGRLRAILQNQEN
DNA dC->dU-editing enzyme APOBEC-3A, sequence (P31941 whole entry): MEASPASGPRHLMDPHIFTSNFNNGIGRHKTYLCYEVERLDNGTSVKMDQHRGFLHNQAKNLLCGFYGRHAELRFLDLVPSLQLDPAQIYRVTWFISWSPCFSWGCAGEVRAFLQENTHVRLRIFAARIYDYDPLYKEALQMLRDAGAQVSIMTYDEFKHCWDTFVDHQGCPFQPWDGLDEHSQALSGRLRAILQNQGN
Protein Wnt-3a, sequence (P27467 whole entry): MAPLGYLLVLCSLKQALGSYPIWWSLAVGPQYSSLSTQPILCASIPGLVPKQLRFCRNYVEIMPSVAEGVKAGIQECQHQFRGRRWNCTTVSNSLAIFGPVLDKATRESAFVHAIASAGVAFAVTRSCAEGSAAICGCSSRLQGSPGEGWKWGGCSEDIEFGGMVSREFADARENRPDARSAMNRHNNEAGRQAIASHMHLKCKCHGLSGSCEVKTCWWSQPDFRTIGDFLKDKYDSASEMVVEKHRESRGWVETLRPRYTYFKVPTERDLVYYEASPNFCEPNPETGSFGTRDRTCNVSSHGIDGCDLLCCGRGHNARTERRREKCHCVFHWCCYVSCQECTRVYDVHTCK

In the case of `Clc1ccc(-c2noc(CN3CCOCC3)n2)cc1`, the AC50 (A-375 [1]) is reported as > 35 µM (active) and the AC50 (A-375 [2]) is reported as > 35 µM (active).

In the case of `Cc1cccc2sc(N)nc12`, the AC50 [3] is reported as 56.2 µM (inconclusive).

For `CCN(CC)P(c1n(C)cc[n+]1C)N(CC)CC`, the IC50 [4] was 2.47 µM (active), the IC50 [5] was 3.2 µM (active) and the IC50 [6] was 3.52 µM (active).

For `O=C(CC1SCCNC1=O)Nc1ccc(F)c(Cl)c1` (stereo not given), the IC50 [7] was 25.7 µM (inactive).

With `COc1ccc(C(=O)Nn2c(SCC(=O)c3ccc(Cl)cc3)nc3ccccc3c2=O)cc1` the IC50 [8] was > 20 µM (inactive) and the AC50 (HEK293) was 8.36 µM (active).

For `Cc1csc2ncnc(NCCc3ccccn3)c12`, the EC50 [9] was 1.92 µM (active), the EC50 [10] was > 160 µM (inactive) and the IC50 (Protein Wnt-3a) was 0.887 µM (active). For the same molecule, the AC50 (INS1) was 4.39 µM (active).

With `CC(=O)c1ccc(N2CCN(S(=O)(=O)c3ccc4c5c3CC(=O)N5CC(C)S4)CC2)cc1` (stereo not given) the CC50 [11] was 17 µM (active) and the IC50 [12] was 50.7 µM (active).

For `O=C(CNC(=O)c1ccc(Br)cc1)c1ccccc1`, the AC50 (A-375 [1]) was > 35 µM (active) and the AC50 (A-375 [2]) was > 35 µM (active).

With `CCOC(=O)C[n+]1c2n(c3ccccc31)CC(O)CS2` (stereo not given) the IC50 [6] was 6.53 µM (active).

For `CCOC(=O)c1ccc(NC(=O)COc2ccccc2CNCCO)cc1`, the IC50 [7] was 25.3 µM (inactive).

In the case of `COc1cc(C(=O)Nc2ccc(O)cc2C(=O)O)ccc1OC(C)=O`, the IC50 [7] is reported as 0.659 µM (active).

In the case of `Nc1c(C(=O)NCCN2CCOCC2)c2nc3ccccc3nc2n1-c1ccc2c(c1)OCO2`, the AC50 [13] is reported as 37.3 µM (active).

With `COc1nc(NC2CCCCC2)nc(NC(C)(C)C)n1` the AC50 (A-375 [1]) was > 35 µM (active) and the AC50 (A-375 [2]) was > 35 µM (active).

In the case of `CCOC(=O)/C(=C\c1ccccc1)C(=O)CCN1CCOCC1`, the GI50 (P388) is reported as 0.627 µM (active), the GI50 (P388/ADR) is reported as 1.13 µM (inactive) and the GI50 (SN12K1) is reported as 5.53 µM (inactive).

With `O=C(/C=C\c1ccc(/C=C/C(=O)Nc2cccc(C3=NCCCN3)c2)cc1)Nc1cccc(C2=NCCCN2)c1` the GI50 (P388) was 0.303 µM (active), the GI50 (P388/ADR) was 79.3 µM (inactive) and the GI50 (SN12K1) was > 100 µM (inactive).

With `COC(=O)[C@]12CC=C3O[C@@H]4OC5(CCCCC5)O[C@@H]4[C@H]3C1C(=O)C=CC2=O` (stereo not given in full) the GI50 (P388) was 2.81 µM (inactive), the GI50 (P388/ADR) was 2.96 µM (inactive) and the GI50 (SN12K1) was 16 µM (inactive).

With `CN1C(=O)c2cc(NC(=O)Cc3ccccc3)ccc2OC[C@@H]2O[C@@H](CC(=O)NCc3ccc(Cl)cc3)CC[C@H]21` the AC50 [14] was 41.4 µM (active).

For `COc1cc(C2c3cc4c(cc3[C@@H](Nc3ccc5c(c3)OCCO5)C3COC(=O)[C@H]23)OCO4)cc(OC)c1O` (stereo not given in full), the GI50 (P388) was < 0.01 µM (active), the GI50 (P388/ADR) was 0.229 µM (active) and the GI50 (SN12K1) was 0.274 µM (active).

In the case of `Nc1ccc(-c2nc3c(ccc4ccccc43)[nH]2)cc1`, the AC50 [13] is reported as 92.4 µM (active).

For `Nc1cc(Cl)c(N)c(Cl)c1`, the AC50 [3] was 31.6 µM (inconclusive) and 25.1 µM (inconclusive) and the AC50 (Cytochrome P450 3A4) was 20 µM (inconclusive).

In the case of `Cc1ccc(N=C=O)cc1N=C=O` [TOLUENE DIISOCYANATE], the AC50 [3] is reported as 50.1 µM (inconclusive).

From ChEMBL document CHEMBL1201862, “PubChem BioAssay data set” (2004)
